One series concerns A2780. The series can be described thus: MTT cell viability assay, A2780. In kind it is cell-based, human. An excerpt:
Human epithelial ovarian cancer A2780 cell line and its cisplatin-resistant clone A2780cis were obtained from Sigma-Aldrich (Milano, Italy). SKOV3 (HTB-77) cells were from the American Type Culture Collection (ATCC). The two cell lines were selected to reflect the two different stages of OvCa and different sensitivity to cisplatin. A2780 cell lines were derived from the ovarian tumor tissue of an untreated patient, while SKOV3 was from the ascitic fluids (after metastasis). Cells were authenticated in the laboratory using PowerPlex 16 HS system (Promega) and GeneMapper ID version 3.2.1 to identify DNA short tandem repeats. Cell lines were cultured in RPMI-1640 medium containing 10% fetal bovine serum (FBS) (Gibco, Thermo Fisher Scientific, U.S.A), 1% (v/v) of penicillin (10,000 units/mL)-streptomycin (10 mg/mL), and 1% (v/v) L-glutamine (200 mM) (all from Sigma- Aldrich) at 37° C. in a 5% CO2 fully humidified atmosphere. A2780cis cells were continuously exposed to 1 μM cisplatin to maintain cisplatin resistance. Adipose-derived stem cells (ADSCs) were purchased from Lonza and maintained in mesenchymal-stem-cell growth medium Bulletkit MSCGM (Lonza, Verviers, Belgium).
4.0×10^3/mL A2780, A2780cis, and SKOV3 cells were seeded in 96-well microplates in 100 μL of culture medium. Cells were allowed to adhere for 24 hours and then were treated in triplicate with increasing concentrations of gold compounds (0-1 μM). Cisplatin was included as a reference drug. Cell viability was evaluated using 3-(4,5-dimethylthiazol-2-yl)-2,5-diphenyltetrazolium bromide (MTT) assay (Sigma-Aldrich) after 72 hours of treatment. Half maximal inhibitory concentrations (IC50) were calculated using the CalcuSyn software version 2 (Biosoft, Ferguson, MO, USA). Fold resistance was calculated as the ratio of the IC50 of the A2780cis to that of the parental cell line A2780.

The target of a further series is T1, 20S proteasome (Homo sapiens, UniProt P28074).
T1 construct: endogenous in cells; host or cells: A2780, A2780cis and SKOV3 ovarian cancer cells, treated for 24 h and then lysed
The series can be described thus: 20S proteasome activity in lysates of treated cells. The series is classed as cell-based. To be noted: OvCa cells treated 24 hours. On the procedure:
Proteasome activity (EC 3.4.25.1) was evaluated on the same cell lysates as TrxR using the 20S proteasome activity assay kit APT280 (Merck Millipore) and a computer-interfaced GeniusPlus microplate reader (Tecan Trading AG, Switzerland). The activity was normalized to the protein concentration and expressed as a percentage of control.

The subject of series [1] is thioredoxin reductase (TrxR). To be noted: OvCa cells treated 24 hours. On the procedure: To evaluate both the thioredoxin reductase (TrxR) and proteasome activity, cells were treated with complex 6 for 24 hours and then lysed in 50 mM Tris-HCl, pH 7.6, 0.1% Triton X-100, 0.9% NaCl. TrxR (EC 1.8.1.9) was assayed using thioredoxin reductase assay kit (Sigma-Aldrich). Enzyme activity was determined by reading the absorbance at 412 nm using a spectrophotometer (Biomate 3 Thermo Spectronic, Thermo Electonic Corporation, Monza, Italy).
The enzymatic activity was normalized to the protein concentration and determined using the Bio-Rad protein assay (protein assay dye reagent concentrate, Bio-Rad Laboratories, Segrate, Italy).

Another series deals with A2780 and A2780cis cells. The series is described as follows: DNA double-strand breaks, γ-H2AX western blot. The series is classed as cell-based, human. As for the experimental part: Whole-cell lysates were prepared using cold RIPA buffer [150 mM NaCl, 50 mM Tris-HCl (pH 8), 0.1% SDS, 1% Igepal, and 0.5% desoxycholate sodium] containing a protease inhibitor cocktail (Roche Diagnostics S.p.a., Milan, Italy), phosphatase inhibitors 1 mM Na3VO4 and 1 mM NaF (Sigma-Aldrich). Protein concentrations were determined using the BioRad protein assay (Bio-Rad Laboratories, Inc., CA, USA). Equal amounts of proteins were mixed with Laemmli buffer, separated in 4-20% SDS-PAGE (Criterion Precast Gel, BioRad), and blotted onto a nitrocellulose membrane (Amersham, GE Healthcare). Membrane strips were blocked with EveryBilot blocking buffer (Bio-Rad) and incubated at 4° C. overnight with primary antibodies probed with the appropriate antibodies (Table 2) and developed using Immobilon Western chemioluminescent HRP substrate. Images were acquired using a ChemiDoc XRS system (Bio-Rad).

The nature of series [2]: Body weight and physical inspection of xenografted mice. In kind it is in vivo. To be noted: 2 mg/kg intratumoral, two injections/week. As for the experimental part: Animal experimentation was reviewed and approved by Centro di Riferimento Oncologico di Aviano (CRO) Institutional Organism for Animal Wellbeing (OPBA) and approved by the Italian Ministry of Health (No. 671/2015/PR). All animal experiments were conducted in adherence to the international and institutional committees' ethical guidelines. Ten 4-week-old female athymic nude NU(NCr)-Foxn1^nu mice were purchased from Charles Rivers (Lecco, Italy). SKOV3 (10×10^6 cells/animal) were suspended in BD Matrigel basement membrane matrix (BD Biosciences) (diluted 1:3 in PBS) and inoculated into the animals' right flank. When tumors were palpable, animals were divided into two groups of five mice each, and treated with intratumoral injection of complex 6 (2 mg/kg) or vehicle (10% DMSO, 20% Cremophor Sigma-Aldrich, 70% PBS) two times a week. Body weight and tumors were examined regularly. Tumor size was measured using a digital caliper, and volumes were calculated according to the formula (width^2×length×3.14)/6.

Another series has as its system SKOV3 cells. The series is described as follows: Cytoskeleton organization, immunofluorescence confocal microscopy. In kind it is cell-based, human. To be noted: 24 hours treatment. As for the experimental part: Cell migration was assessed using the in vitro wound healing assay. Briefly, cells were grown to confluence and then treated with complex 6. After 24 hours of treatment, the medium was removed and cells were washed then scraped with a pipet tip to create a “wound” in the monolayer and washed again. Fresh medium containing 2% FCS was added. Wounds were photographed at times 0, 24, and 48 hours using an inverted microscope (EclipseTS/100, Nikon, Instruments Europe BV Amsterdam, The Netherlands) at magnification 4. Migration was assessed by measuring the cell-free area (in pixels) with ImageJ-NIH (National Institutes of Health) tool software. The cytoskeleton organization was evaluated by culturing SKOV3 cells onto glass coverslips and performing immunofluorescence staining for α-tubulin and F-actin. SKOV3 cells were treated for 24 hours with complex 6, fixed in 4% paraformaldehyde, permeabilized with 0.5% Triton X-100, and incubated overnight with primary antibody (Table 1) at 4° C. Primary antibody was detected using the appropriate secondary antibody together with phallotoxins (Molecular Probes) and TO-PRO-3 (Thermo Fisher Scientific). Images were acquired using an SP8 confocal microscope (Leica).

“Also recorded” adds a separate entry of the source.

What is called IC50 is the concentration that gives 50% inhibition. Low readings indicate higher potency, high ones lower potency. Consider `CC(C)c1cccc(C(C)C)c1-n1ccn(-c2c(C(C)C)cccc2C(C)C)[c]1=[Au+][PH](C1CCCCC1)(C1CCCCC1)C1CCCCC1.F[P-](F)(F)(F)(F)F` [Complex 6, [Au(IPr)(C18H33P)] PF6], for which it took 140 ± 10 nM to reach half-maximal inhibition in the series on A2780 (72 hours treatment, MTT) (IC50). In addition, in the series on A2780 (A2780 and A2780cis, Table 8), the “Cytotoxic activity ranking within the series” value is on record as “most potent”. Further, in the series on A2780 (comparison of IC50, Table 8), the “Activity compared with cisplatin or auranofin in A2780 cells” value is “more active than cisplatin; also recorded: more active than auranofin”. Further, on 20S proteasome, the 20S proteasome activity entry is reported as “decreased the 20S proteasome activity in a dose-dependent manner”. For the same compound, the TrxR enzymatic activity entry in series [1] is on record as “did not modify its enzymatic activity”. The “DNA double-strand breaks (γH2AX)” value in the series on A2780 and A2780cis cells is given as “induced DNA-DSBs”. Moreover, in series [2], the “Physical inspection and body weight” value is reported as “normal to physical inspection with a comparable weight with respect to untreated mice”. In addition, in the series with SKOV3 cells, the F-actin cytoskeleton organization result is “irregular disposition and organization of the F-actin cytoskeleton”; the α-tubulin distribution result was “did not modify α-tubulin distribution”.

(Values after patent publication US20250057959A1, “PHOSPHANE GOLD(I)-N-HETEROCYCLIC CARBENE COMPLEXES FOR TREATING CANCER” (KING FAHD UNIVERSITY OF PETROLEUM AND MINERALS, priority 2023, published 2025).)
